The record followed here is ChEMBL document CHEMBL1201862, “PubChem BioAssay data set” (2004).

Structures are written as SMILES.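 In this assay, cells in 96-well plates receive the compound at five concentrations for 48 hours. Endpoints are linearly interpolated between the surrounding concentrations. Here, GI50 denotes the concentration required for 50% inhibition of growth.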 Calls of active or inactive are those of the source. Cut-off read from the data, not from the text of the source: active = GI50 up to about 1.1 µM and inactive = higher.

Among the test systems are NCI-H460; SK-MEL-5; OVCAR-4; SF-268; LOX IMVI; CCRF-CEM; SF-295; SNB-78; EKVX; NCI-H23; A498; HCT-116; Malme-3M; RPMI-8226; SR; SK-MEL-28; HCT-15; KM12; UO-31; 786-0.
Experiment in all cases: NCI anticancer screen, dose series, 48 h

Take `O=C(CC1OC(O)C(Cl)=C1Cl)c1cccnc1` (stereo not given): the GI50 is > 73.5 µM (inactive) with NCI-H460; 83.8 µM (inactive) in the experiment with SK-MEL-5; > 100 µM (inactive) in the experiment on OVCAR-4; > 68.4 µM (inactive) in the experiment on SF-268; > 100 µM (inactive) in the experiment on LOX IMVI; > 100 µM (inactive) in the experiment with CCRF-CEM. Besides, the GI50 in the experiment on SF-295 was > 100 µM (inactive); in the experiment with SNB-78, > 100 µM (inactive); with EKVX it was > 100 µM (inactive); in the experiment with NCI-H23 it was > 100 µM (inactive); with A498, > 100 µM (inactive); with HCT-116 it was > 39.8 µM (inactive). Further, the GI50 in the experiment with Malme-3M is > 100 µM (inactive); in the experiment with RPMI-8226 it was > 34.7 µM (inactive); in the experiment on SR it was > 100 µM (inactive); in the experiment with SK-MEL-28, > 42.7 µM (inactive); in the experiment on HCT-15, more than 41.1 µM; in the experiment with KM12, > 100 µM (inactive). Further, the GI50 in the experiment with UO-31 is > 100 µM (inactive); with 786-0, > 41.5 µM (inactive).
Regarding `C=CCONC(=O)c1ccc(Cl)cc1`, the GI50 in the experiment with NCI-H460, in the experiment on SK-MEL-5, in the experiment on OVCAR-4, with SF-268, with LOX IMVI and with CCRF-CEM was > 100 µM (inactive) throughout. Also, the GI50 in the experiment on SF-295, with SNB-78, in the experiment on EKVX, in the experiment with NCI-H23, with A498 and with HCT-116 was > 100 µM (inactive) in each case. For the same compound, the GI50 in the experiment with Malme-3M is > 100 µM (inactive); with RPMI-8226, > 100 µM (inactive); in the experiment with SR, > 100 µM (inactive); with SK-MEL-28 it was > 100 µM (inactive); in the experiment on HCT-15, more than 100 µM; with KM12, > 100 µM (inactive). Besides, the GI50 with UO-31 and in the experiment with 786-0 was > 100 µM (inactive) each time.
Turning to `CC(C)N(C(=O)C12C3C4C5(C#N)C3C1(C#N)C5C42I)C(C)C` (stereo not given), the GI50 was > 53.6 µM (inactive) with NCI-H460; > 100 µM (inactive) in the experiment with SK-MEL-5; > 100 µM (inactive) with OVCAR-4; > 100 µM (inactive) with SF-268; > 49.5 µM (inactive) with LOX IMVI; > 39.9 µM (inactive) with CCRF-CEM. Moreover, the GI50 was > 100 µM (inactive) with SF-295; > 100 µM (inactive) with SNB-78; > 100 µM (inactive) with EKVX; > 100 µM (inactive) in the experiment on NCI-H23; > 100 µM (inactive) with A498; 17.4 µM (inactive) with HCT-116. The GI50 is > 100 µM (inactive) in the experiment on Malme-3M; > 46.1 µM (inactive) with RPMI-8226; 13.4 µM (inactive) in the experiment on SR; > 100 µM (inactive) in the experiment on SK-MEL-28; more than 78.5 µM in the experiment on HCT-15; > 100 µM (inactive) with KM12. Also, the GI50 in the experiment on UO-31 and with 786-0 was > 100 µM (inactive) throughout.
Consider `CC(/C=C/C(=O)c1sc(-n2nc(-c3ccccc3)cc2-c2ccccc2)nc1C)=C\c1ccccc1`, for which the GI50 is 52.7 µM (inactive) in the experiment on NCI-H460; 15.5 µM (inactive) in the experiment on SK-MEL-5; 7.43 µM (inactive) in the experiment with OVCAR-4; 72.9 µM (inactive) with SF-268; 71.9 µM (inactive) in the experiment with LOX IMVI; 27.7 µM (inactive) in the experiment on CCRF-CEM. The GI50 in the experiment with SF-295 was > 10 µM (inactive); with SNB-78, > 10 µM (inactive); with EKVX, 5.05 µM (inactive); in the experiment on NCI-H23, 8.3 µM (inactive); in the experiment on A498, > 10 µM (inactive); in the experiment on HCT-116, 62.5 µM (inactive). Besides, the GI50 in the experiment on Malme-3M was 35.8 µM (inactive); in the experiment on RPMI-8226, 19.3 µM (inactive); in the experiment on SR, 27.2 µM (inactive); with SK-MEL-28, > 10 µM (inactive); in the experiment on HCT-15 it was 19.2 µM; in the experiment with KM12 it was 23.8 µM (inactive). The GI50 with UO-31 is 24 µM (inactive); in the experiment with 786-0, 96.4 µM (inactive).
Regarding `CC1OC(OC2CC(O)(C(=O)CO)Cc3c(O)c4c(c(O)c32)C(=O)c2ccccc2C4=O)CC(N)C1O` (stereo not given), the GI50 in the experiment with NCI-H460 is < 0.01 µM (active); with SK-MEL-5 it was < 0.0105 µM (active); in the experiment with OVCAR-4 it was 0.0813 µM (active); in the experiment with SF-268 it was < 0.0163 µM (active); with LOX IMVI, < 0.01 µM (active); in the experiment on CCRF-CEM, < 0.01 µM (active). In addition, the GI50 with SF-295 was < 0.01 µM (active); with SNB-78, 0.0637 µM (active); with EKVX, 0.158 µM (active); in the experiment on NCI-H23, 0.0162 µM (active); in the experiment with A498, < 0.01 µM (active); with HCT-116, < 0.01 µM (active). Further, the GI50 was < 0.01 µM (active) in the experiment with Malme-3M; < 0.01 µM (active) in the experiment on RPMI-8226; < 0.01 µM (active) with SR; 0.0573 µM (active) with SK-MEL-28; 0.0708 µM in the experiment on HCT-15; 0.0168 µM (active) with KM12. In addition, the GI50 in the experiment on UO-31 is 0.0232 µM (active); in the experiment with 786-0 it was < 0.01 µM (active).
